Test results: US20240002375A1, “2-(INDAZOL-5-YL)-6-(PIPERIDIN-4-YL)-1,7-NAPHTHYRIDINE DERIVATIVES AND RELATED COMPOUNDS AS MODULATORS FOR SPLICING NUCLEIC ACIDS AND FOR THE TRE” (REMIX THERAPEUTICS INC., priority 2020, published 2024)
Read-outs that look alike come from different tables or passages of the source.

What was measured:
Type in all cases: cell-based
HTT mRNA = test: Splicing assay (RT-qPCR) of HTT mRNA alternative junction (AJ) and canonical junction (CJ)
Protocol: Compounds described herein were used to modulate RNA transcript abundance in cells. The expression of a target mRNA was measured by detecting the formation of an exon-exon junction in the canonical transcript (CJ). A compound mediated exon-inclusion event was detected by observing an increase in formation of a new junction with an alternative exon (AJ). Real-time qPCR assays were used to detect these splicing switches and interrogate the potency of various compounds towards different target genes. A high-throughput real time quantitative PCR (RT-qPCR) assay was developed to measure these two isoforms of the mRNA (CJ and AJ) for an exemplary gene, HTT, together with a control housekeeping gene, GAPDH or GUSB or PPIA, used for normalization. Briefly, the A673 or K562 cell line was treated with various compounds described herein (e.g., compounds of Formula (I) or (II)). After treatment, the levels of the HTT mRNA targets were determined from each sample of cell lysate by cDNA synthesis followed by qPCR.
Materials: • Cells-to-CT 1-step kit: ThermoFisher A25602, Cells-to-CT lysis reagent: ThermoFisher 4391851C, TagMan™ Fast Virus 1-Step Master Mix: ThermoFisher 4444436 • GAPDH: VIC-PL, ThermoFisher 4326317E (Assay: Hs99999905_ml)—used for K562/suspension cell lines • GUSB: VIC-PL, ThermoFisher 4326320E (Assay: Hs99999908 ml)—used for K562/suspension cell lines • PPIA: VIC-PL, ThermoFisher 4326316E (Assay: Hs99999904 ml)—used for A673/adherent cell lines
The A673 cell line was cultured in DMEM with 10% FBS. Cells were diluted with full growth media and plated in a 96-well plate (15,000 cells in 100 ul media per well). The plate was incubated at 37° C. with 5% CO2 for 24 hours to allow cells to adhere. An 11-point 3-fold serial dilution of the compounds was made in DMSO then diluted in media in an intermediate plate. Compounds were transferred from the intermediate plate to the cell plate with the top dose at a final concentration of 10 uM in the well. Final DMSO concentration was kept at or below 0.25%. The cell plate was returned to the incubator at 37° C. with 5% CO2 for an additional 24 hours.
The K562 cell line was cultured in IMDM with 10% FBS. For K562, cells were diluted with full growth media and plated in either a 96-well plate (50,000 cells in 50 uL media per well) or a 384-well plate (8,000-40,000 cells in 45 uL media per well). An 11-point 3-fold serial dilution of the compounds were made in DMSO then diluted in media in an intermediate plate. Compound was transferred from the intermediate plate to the cell plate with the top dose at a final concentration of 10 uM in the well. Final DMSO concentration was kept at or below 0.25%. Final volume was 100 uL for 96-well plate and 50 uL for 384-well plate. The cell plate was then placed in an incubator at 37° C. with 5% CO2 for 24 hours.
The cells were then gently washed with 50 uL-100 uL cold PBS before proceeding to addition of lysis buffer. 30 uL-50 uL of room temperature lysis buffer with DNAse I (and optionally RNAsin) was added to each well. Cells were shaken/mixed thoroughly at room temperature for 5-10 minutes for lysis to take place and then 3 uL-5 uL of room temperature stop solution was added and wells were shaken/mixed again. After 2-5 minutes, the cell lysate plate was transferred to ice for RT-qPCR reaction setup. The lysates could also be frozen at −80° C. for later use.
In some cases, a direct lysis buffer was used. An appropriate volume of 3X lysis buffer (10 mM Tris, 150 mM NaCl, 1.5%-2.5% Igepal and 0.1-1 U/uL RNAsin, pH 7.4) was directly added to either K562 or A673 cells in media and mixed by pipetting 3 times. The plates were then incubated at room temperature with shaking/rocking for 20-50 minutes to allow for lysis to take place. After this time, the cell lysate plate was transferred to ice to set up for the RT-qPCR reactions. The lysates could also be frozen at −80° C. for later use. […]

HTT CJ mRNA = test: Gene panel canonical junction qPCR splicing assay, HTT; conditions: Table 4, read-out: HTT IC50 (decrease in CJ mRNA levels)
Protocol: (§1) Compounds described herein were used to modulate RNA transcript abundance in cells. The expression of a target mRNA was measured by detecting the formation of an exon-exon junction in the canonical transcript (CJ). A compound mediated exon-inclusion event was detected by observing an increase in formation of a new junction with an alternative exon (AJ). Real-time qPCR assays were used to detect these splicing switches and interrogate the potency of various compounds towards different target genes. A high-throughput real time quantitative PCR (RT-qPCR) assay was developed to measure these two isoforms of the mRNA (CJ and AJ) for an exemplary gene, HTT, together with a control housekeeping gene, GAPDH or GUSB or PPIA, used for normalization. Briefly, the A673 or K562 cell line was treated with various compounds described herein (e.g., compounds of Formula (I) or (II)). After treatment, the levels of the HTT mRNA targets were determined from each sample of cell lysate by cDNA synthesis followed by qPCR. The data analysis was performed by first determining the ΔCt vs the housekeeper gene. This ΔCt was then normalized against the DMSO control (ΔΔCt) and converted to RQ (relative quantification) using the 2^(−ΔΔCt) equation. The RQ were then converted to a percentage response by arbitrarily setting an assay window of 3.5 ΔCt for HTT-CJ and an assay window of 9 ΔCt for HTT-AJ. […] The percentage response was then fitted to the 4 parametric logistic equation to evaluate the concentration dependence of compound treatment. The increase in AJ mRNA is reported as AC50 (compound concentration having 50% response in AJ increase) while the decrease in CJ mRNA levels is reported as IC50 (compound concentration having 50% response in CJ decrease). Additional studies were carried out for a larger panel of genes using the protocol provided above. The junction between flanking upstream and downstream exons was used to design canonical junction qPCR assays. At least one of the forward primer, reverse primer or the CY5-labeled 5′ nuclease probe (with 3′ quencher such as ZEN/Iowa Black FQ) was designed to overlap with the exon junction to capture the CJ mRNA transcript. BLAST was used to confirm the specificity of the probeset and parameters such as melting temperature, GC content, amplicon size, and primer dimer formation are considered during their design. Data for the decrease in CJ mRNA levels for three exemplary genes (HTT, SMN2, and Target C) analyzed in this panel are reported as IC50 (compound concentration having 50% response in CJ decrease).

SMN2 CJ mRNA = test: Gene panel canonical junction qPCR splicing assay, SMN2; conditions: Table 4, read-out: SMN2 IC50 (decrease in CJ mRNA levels)
Protocol: as §1

Target C CJ mRNA = test: Gene panel canonical junction qPCR splicing assay, Target C; conditions: Table 4, read-out: Target C IC50 (decrease in CJ mRNA levels)
Protocol: as §1

[1] = decrease in CJ mRNA, A673 or K562 cells, 24 hours, read-out: HTT CJ IC50
[2] = increase in AJ mRNA, A673 or K562 cells, 24 hours, read-out: HTT AJ AC50

IC50 (HTT mRNA; [1]) [nM]	IC50 (HTT CJ mRNA) [nM]	IC50 (SMN2 CJ mRNA) [nM]	IC50 (Target C CJ mRNA) [nM]	SMILES	AC50 (HTT mRNA; [2]) [nM]	AC50 (HTT mRNA; 24 h, read-out: HTT AJ AC50 (nM)) [nM]	IC50 (HTT mRNA; 24 h, read-out: HTT CJ IC50 (nM)) [nM]
< 100	< 100	< 100	< 100	Cc1nc2cc(O)c(-c3ccc4nc(C5CCNCC5)ccc4n3)cc2o1 [Compound 147, 2-methyl-6-[6-(piperidin-4-yl)-1,5-naphthyridin-2-yl]-1,3-benzoxazol-5-ol]	< 100		
100 to 1000	100 to 1000	< 100	100 to 1000	CN1CCC(c2ccc3nc(-c4cc5cn(C)nc5cc4O)ccc3n2)CC1 [Compound 142, 2-methyl-5-[6-(1-methylpiperidin-4-yl)-1,5-naphthyridin-2-yl]indazol-6-ol]	100 to 1000		
1000 to 10000	1000 to 10000	< 100	100 to 1000	Cn1cc2cc(-c3ccc4nc(C5CCNCC5)ccc4n3)ccc2n1 [Compound 184, 2-(2-methylindazol-5-yl)-6-(piperidin-4-yl)-1,5-naphthyridine]	100 to 1000		
< 100	< 100	< 100	< 100	Cc1nc2c(F)c(O)c(-c3ccc4nc(N5CC[C@@H](NC6CC6)C5)ccc4n3)cc2o1 (single isomer, unassigned) [Compound 253, 6-{6-[3-(cyclopropylamino)pyrrolidin-1-yl]-1,5-naphthyridin-2-yl}-4-fluoro-2-methyl-1,3-benzoxazol-5-ol]	< 100		
1000 to 10000	1000 to 10000	100 to 1000	1000 to 10000	Cn1cc2cc(O)c(-c3ccc4nc(C5CCNCC5)ccc4n3)cc2n1 [Compound 146, 2-methyl-6-[6-(piperidin-4-yl)-1,5-naphthyridin-2-yl]indazol-5-ol]	1000 to 10000		
> 10000	> 10000	1000 to 10000	> 10000	Cn1cc2cc(-c3ccc4nc(C5CCNCC5)ccc4n3)c(C(F)F)cc2n1 [Compound 196, 2-[6-(difluoromethyl)-2-methylindazol-5-yl]-6-(piperidin-4-yl)-1,5-naphthyridine]	> 10000		
< 100	< 100	< 100	< 100	Cc1c(O)c(-c2ccc3nc(C4CCNCC4)ccc3n2)cc2cn(C)nc12 [Compound 101, 2,7-dimethyl-5-[6-(piperidin-4-yl)-1,5-naphthyridin-2-yl]indazol-6-ol]	< 100		
< 100	< 100	< 100	< 100	Cc1nc2c(C)c(O)c(-c3ccc4nc(N5CC[C@@H](NC(C)(C)C)C5)ccc4n3)cc2o1 (single isomer, unassigned) [Compound 215, 6-{6-[3-(tert-butylamino)pyrrolidin-1-yl]-1,5-naphthyridin-2-yl}-2,4-dimethyl-1,3-benzoxazol-5-ol]	< 100		
1000 to 10000	1000 to 10000	1000 to 10000	1000 to 10000	Cn1cc2cc(-c3ccc4nc(C5CCNCC5)ccc4n3)ncc2n1 [Compound 200]	1000 to 10000		
> 10000				Cn1cc2cc(-c3ccc4nc(N5CCC(NC(C)(C)C)C5)ccc4n3)c(F)cc2n1 (stereo not shown) [Compound 183]			
1000 to 10000	1000 to 10000	< 100	1000 to 10000	Cc1nc2cc(O)c(-c3ccc4nc(C5CCNCC5)ccc4n3)cc2s1 [Compound 148]	1000 to 10000		
< 100	< 100	< 100	< 100	Cc1nc2c(C)c(O)c(-c3ccc4nc(N5CCC(NC6CC6)C5)ccc4n3)cc2o1 (single isomer, unassigned) [Compound 217, 6-{6-[3-(cyclopropylamino)pyrrolidin-1-yl]-1,5-naphthyridin-2-yl}-2,4-dimethyl-1,3-benzoxazol-5-ol]	< 100		
	> 10000	> 10000	< 100	CN(C(=O)Nc1cn[nH]c1)c1cc2nc(N3CCNCC3)ccc2cn1 [Compound 110, 1-methyl-1-[2-(piperazin-1-yl)-1,6-naphthyridin-7-yl]-3-(1H-pyrazol-4-yl)urea]	> 10000		
100 to 1000	100 to 1000	< 100	100 to 1000	CN(C)C1CCN(c2ccc3nc(-c4cc5cn(C)nc5cc4O)ccc3n2)C1 (stereo not shown) [Compound 129, 5-[6-[3-(dimethylamino)pyrrolidin-1-yl]-1,5-naphthyridin-2-yl]-2-methylindazol-6-ol]	100 to 1000		
> 10000	> 10000	> 10000	> 10000	COc1cc2nn(C)cc2cc1-c1ccc2c(F)c(C3CCNCC3)ccc2n1 [Compound 143, 5-fluoro-2-(6-methoxy-2-methylindazol-5-yl)-6-(piperidin-4-yl)quinoline]	> 10000		
100 to 1000				CN1CCC12CCN(c1ccc3nc(-c4cc5cn(C)nc5cc4O)ccc3n1)C2 (stereo not shown) [Compound 181, 2-methyl-5-(6-{1-methyl-1,6-diazaspiro[3.4]octan-6-yl}-1,5-naphthyridin-2-yl) indazol-6-ol]			

SMILES	IC50 (HTT mRNA; [1]) [nM]	IC50 (HTT CJ mRNA) [nM]	IC50 (SMN2 CJ mRNA) [nM]	IC50 (Target C CJ mRNA) [nM]	AC50 (HTT mRNA; [2]) [nM]	AC50 (HTT mRNA; 24 h, read-out: HTT AJ AC50 (nM)) [nM]	IC50 (HTT mRNA; 24 h, read-out: HTT CJ IC50 (nM)) [nM]
CC(C)N[C@H]1CCN(c2ccc3nc(-c4cc5cn(C)nc5cc4O)ccc3n2)C1 [Compound 171]		< 100	< 100	100 to 1000		< 100	< 100
